Results as given in patent publication US20060165743A1, “Method and device to control and condition the behavior of the varroa destructor mite in a beehive, or in other environment where bees reproduce” (Universita' Degli Studi Di Udine, priority 2002, published 2006).

Key:
Varroa destructor mite [1] = test: Activity test in artificial observation plates (treated wells vs solvent control wells, each with a bee larva); format: in vivo; conditions: for AVERAGE ACTIVITY TREATED: 6 observations in 30 min, 34° C., 75% RH, dark
Experimental: The activity of (±)-2-hydroxyhexanoic acid and of (±)-3-hydroxyhexanoic acid, dissolved in water, was tested in a plate 10 (FIG. 1). Each plate 10 consists of a parallelepiped of sodium-calcium glass with a 70×70 mm square base, and a height of 12 mm, in which four cylindrical wells 12a, 12b, are made, each with a diameter of 7 mm and a depth of 10 mm, similar in size to bee cells. The wells 12a, 12b are equidistant from the center. At the center of the plate 10 a Varroa destructor mite was placed, indicated by the number 11. To delimit the space in which the mite 11 could move, the plates 10 were closed with a cover element 15 consisting of a glass disk joined to a stainless steel spacer ring 17. Two opposite wells 12a of each plate 10 were treated with (±)-2-hydroxyhexanoic acid or with (±)-3-hydroxyhexanoic acid, dissolved in water; the other two wells 12b, on the contrary, were used as controls and were treated only with the solvent. In each individual well 12a, 12b of the plate 10 a bee larva 20 was then placed. The biological activity test on (±)-2-hydroxyhexanoic acid provides a first test during which 1 ng of (±)-2-hydroxyhexanoic acid is tested, a second test during which 10 ng of (±)-2-hydroxyhexanoic acid are tested and a third test during which 100 ng are tested and a fourth test during which 1000 ng are tested. The biological activity test on (±)-3-hydroxyhexanoic acid provides a first test during which 10 ng of (±)-3-hydroxyhexanoic acid are tested, a second test during which 100 ng of (±)-3-hydroxyhexanoic acid are tested, and a third test during which 1000 ng are tested. At the beginning of each test the Varroa destructor mite 11, in this case a female adult, is located at the center of each plate 10 with a thin brush; each plate 10 is then closed and transferred to a thermostatic chamber. Subsequently, the position of the mite 11 was monitored every 5 minutes for a total of 30 minutes, to a total of 6 observations. 20 plates were used for every test, with 4 repetitions, to a total of 80 plates. During the tests the temperature and relative humidity were kept respectively around 34° C. and 75%; the inside of the thermostatic chamber was kept dark. The action of the substances tested on the Varroa destructor mite was evaluated by calculating an average value for the treated wells 12a and the control wells 12b, equal to the average number of times in which the Varroa destructor mite was observed inside one or the other in the 6 observations made in the course of the 30 minutes of each test. The average values thus obtained are representative, with a certain approximation, of the time spent by the mite in the two types of well 12a, 12b. The attractiveness of a substance thus determines higher average values for the treated wells 12a with respect to those of the control wells 12b.

Varroa destructor mite [2] = test: Activity test in the beehive (cells with worker bee larvae near to opercolature); format: in vivo; conditions: 100 ng in 1 μl solvent per cell, 18 hours after treatment
Experimental: (±)-2-hydroxyhexanoic acid was also tested in the beehive, by applying, in the cells with worker bee larvae near to opercolature, a solution of 100 ng of (±)-2-hydroxyhexanoic acid dissolved in 1 μl of a suitable solvent. The infestation of such cells was compared with that of the control cells treated with the solvent alone: the cells used were examined 18 hours after treatment and the Varroa destructor mites present in the treated cells and in the control cells were counted.

## CCCCC(O)C(=O)O (racemic) [(±)-2-hydroxyhexanoic acid]
Varroa destructor mite [1]; 1 ng in treated wells
  AVERAGE ACTIVITY TREATED: 22.3
Varroa destructor mite [1]; 10 ng in treated wells
  AVERAGE ACTIVITY TREATED: 31.8
Varroa destructor mite [1]; 100 ng in treated wells
  AVERAGE ACTIVITY TREATED: 34.7
Varroa destructor mite [1]; 1000 ng in treated wells
  AVERAGE ACTIVITY TREATED: 23.0
Varroa destructor mite [1]; dose 10 ng
  Activity on / attractiveness to the Varroa destructor mite (infestation of treated wells vs control wells), in words: active on and attractive to the Varroa destructor mite
Varroa destructor mite [1]; dose 100 ng
  Activity on / attractiveness to the Varroa destructor mite (infestation of treated wells vs control wells), in words: active on and attractive to the Varroa destructor mite
Varroa destructor mite [2]
  Number of Varroa destructor mites per cell in treated cells vs non-treated cells, in words: significantly greater
Varroa destructor mite [2]; average of 5 replications
  N. OF VARROA DESTRUCTOR MITE PER CELL TREATED, Average: 0.60

## CCCCCCC(O)C(=O)O (racemic) [(±)-2-hydroxyoctanoic acid, reference compound]
Varroa destructor mite [1]; 100 ng in treated wells
  AVERAGE ACTIVITY TREATED: 29.5
Varroa destructor mite [1]; dose 100 ng
  Activity on / attractiveness to the Varroa destructor mite (infestation of treated wells vs control wells), in words: not found to be active

## CCCC(O)CC(=O)O (racemic) [(±)-3-hydroxyhexanoic acid]
Varroa destructor mite [1]; 10 ng in treated wells
  AVERAGE ACTIVITY TREATED: 24.5
Varroa destructor mite [1]; 100 ng in treated wells
  AVERAGE ACTIVITY TREATED: 36.8
Varroa destructor mite [1]; 1000 ng in treated wells
  AVERAGE ACTIVITY TREATED: 23.3
Varroa destructor mite [1]; dose 100 ng
  Activity on / attractiveness to the Varroa destructor mite (infestation of treated wells vs control wells), in words: active on and attractive to the Varroa destructor mite
